The results in this text go back to patent publication USRE47302E1 (ONYX THERAPEUTICS INC., priority 2013, dated 2019).

Values after ≈ are worked out from the molar mass of the structure shown.

A short description of the data set: physchem. The note with it: pH 7, aqueous buffer.

The term solubility denotes the dissolved amount per volume that the medium holds. A low value points to a poorly soluble substance. The compound `COc1ccc(C[C@H](NC(=O)[C@H](C)NC(=O)CN2CC3CC(C2)O3)C(=O)N[C@@H](CC2CCCC2)C(=O)[C@@]2(C)CO2)cc1` [Compound C-1229, (2S)-2-((2S)-2-(2-(6-oxa-3-azabicyclo[3.1.1]heptan-3-yl)acetamido)propanamido)-N-((S)-3-cyclopentyl-1-((R)-2-methyloxiran-2-yl)-1-oxopropan-2-yl)-3-(4-methoxyphenyl)propanamide] showed a solubility of 3620 µg/mL (≈ 6.2 mM).
